Values quoted from earlier work in patent publication US11945788B2, “Process for preparing pitolisant hydrochloride and solid-state forms thereof” (Nuray Chemicals Private Limited, priority 2021, dated 2024).

**Q.** For `Cl.Clc1ccc(CCCOCCCN2CCCCC2)cc1` [Pitolisant hydrochloride, 1-{3-[3-(4-chlorophenyl)propoxy]propyl}piperidine hydrochloride], which solubility in cyclohexane (solvent: cyclohexane) is on record?
**A.** The solubility in cyclohexane was “practically insoluble”.

**Q.** And the solubility in ethanol (solvent: ethanol)?
**A.** Its solubility in ethanol is “soluble”.

**Q.** What about the “solubility in methylene chloride” value (solvent: methylene chloride) of the same compound?
**A.** The value was “soluble”.

**Q.** What about the solubility in water (solvent: water) of the same compound?
**A.** The solubility in water was “soluble”.
